US20250340570A1, “COMPOSITIONS USEFUL FOR MODULATING SPLICING” (Skyhawk Therapeutics, Inc., priority 2022, published 2025)

What was measured:
[1] = test system: ATXN3 transcripts containing exon 4; assay: ATXN3 quantitative splicing assay (qPCR, E4E5 transcripts containing exon 4); type: cell-based; conditions: Human neuroblastoma SK-N-MC cells, 24 h treatment, qPCR primers/probe E4E5
Experimental: Human neuroblastoma SK-N-MC cells were plated in 384-well plates at 20,000 cells/well. Twenty-four hours after plating, cells were treated with compounds for 24 h at appropriate concentrations ranging from 30 μM to 0.6 nM (0.3% DMSO). Treated cells were lysed in 15 μL of lysis buffer, and cDNA was synthesized using the Fast Advanced Cells-to-Ct kit. Two μL of each cDNA was used in qPCR reactions to confirm the exon 4 skipped transcripts of ATXN3. A second set of primers/probe E4E5 was used to detect the transcripts containing exon 4. The third set of primers/probe E8E9 was used to detect total gene level of ATXN3. The qPCR reactions were prepared in 384-well plates in 10.L volume, using TaqMan™ Fast Advanced Master Mix with primers and probes shown in the table below. Reactions were run in a Quant Studio 6 qPCR instrument with default settings.
The primers and probes are listed below in Table 5.

total ATXN3 protein = assay: ATXN3 total protein assay (Mesoscale Discovery); type: cell-based; conditions: Human neuroblastoma SK-N-MC cells, 48 hours incubation, MSD assay
Experimental: Human neuroblastoma SK-N-MC cells were seeded at 10,000 cells/well in 384 well plates one day prior to compound treatment. The concentrations of compounds were tested at appropriate doses ranging from 30 µM to 0.6 nM. After incubation for 48 hours, the cells were lysed with 25.L of lysis buffer containing protease inhibitors, and total ATXN3 protein levels were assessed by Mesoscale Discovery (MSD) assay developed with one pair of and-ATXN3 antibodies. The capture and detect antibodies were raised in mouse and rabbit respectively. Anti-rabbit MSD-ST antibody was used for secondary antibody.
ATXN3 recombinant protein was used for standards. The readouts were captured with 35.L of MSD read buffer and multi-array 384-well high binding plates.

Structure (SMILES) | IC50 [1] | IC50 (total ATXN3 protein)
N[C@@H](CO)Cc1sc2c(NCc3ccco3)snc2c1Cl [Compound 46, (R)-2-amino-3-{8-chloro-4-(furfurylamino)-3,6-dithia-2-azabicyclo[3.3.0]octa-1,4,7-trien-7-yl}-1-propanol] | 101 to 500 nM | 101 to 500 nM
N[C@@H](CF)Cc1sc2c(NCc3cccs3)snc2c1Cl [Compound 47, 7-[(R)-2-amino-3-fluoropropyl]-8-chloro-4-thenylamino-3,6-dithia-2-azabicyclo[3.3.0]octa-1,4,7-triene] | 101 to 500 nM | 101 to 500 nM
N[C@@H](CF)Cc1sc2c(NCc3ccco3)snc2c1Cl [Compound 48, 7-[(R)-2-amino-3-fluoropropyl]-8-chloro-4-(furfurylamino)-3,6-dithia-2-azabicyclo[3.3.0]octa-1,4,7-triene] | 101 to 500 nM | 101 to 500 nM
N[C@H](Cc1sc2c(NCc3cccs3)snc2c1Br)CC1CC1 [Compound 49, 7-[(S)-2-amino-3-cyclopropylpropyl]-8-bromo-4-thenylamino-3,6-dithia-2-azabicyclo[3.3.0]octa-1,4,7-triene] | 501 to 5000 nM | 501 to 5000 nM
N[C@H](Cc1sc2c(NCc3cccs3)snc2c1Cl)C1CC(F)(F)C1 [Compound 53, 7-[(R)-2-amino-2-(3,3-difluorocyclobutyl)eth-yl]-8-chloro-4-thenylamino-3,6-dithia-2-azabicyclo[3.3.0]octa-1,4,7-triene] | 501 to 5000 nM | 501 to 5000 nM
C#C[C@H](N)Cc1sc2c(NCc3cccs3)snc2c1C [Compound 54, 7-[(R)-2-amino-3-butynyl]-8-methyl-4-thenylamino-3,6-dithia-2-azabicyclo[3.3.0]octa-1,4,7-triene] | 501 to 5000 nM | 501 to 5000 nM
CC#C[C@H](N)Cc1sc2c(NCc3cccs3)snc2c1C [Compound 55, 7-[(R)-2-amino-3-pentynyl]-8-methyl-4-thenylamino-3,6-dithia-2-azabicyclo[3.3.0]octa-1,4,7-triene] | 10000 to 40000 nM | 10000 to 40000 nM
N[C@H](Cc1sc2c(NCc3ccco3)snc2c1Cl)CC1CC1 [Compound 57, 7-[(S)-2-amino-3-cyclopropylpropyl]-8-chloro-4-(furfurylamino)-3,6-dithia-2-azabicyclo[3.3.0]octa-1,4,7-triene] | 101 to 500 nM | 501 to 5000 nM
N[C@H](Cc1sc2c(NCc3cccs3)snc2c1Cl)CC1CC1 [Compound 58, 7-[(S)-2-amino-3-cyclopropylpropyl]-8-chloro-4-thenylamino-3,6-dithia-2-azabicyclo[3.3.0]octa-1,4,7-triene] | 501 to 5000 nM | 501 to 5000 nM
N[C@@H](CO)Cc1sc2c(NCc3cccs3)snc2c1Br [Compound 59, (R)-2-amino-3-(8-bromo-4-thenylamino-3,6-dithia-2-azabicyclo[3.3.0]octa-1,4,7-trien-7-yl)-1-propanol] | 101 to 500 nM | 101 to 500 nM
N[C@@H](CO)Cc1sc2c(NCc3ccco3)snc2c1Br [Compound 60, (R)-2-amino-3-{8-bromo-4-(furfurylamino)-3,6-dithia-2-azabicyclo[3.3.0]octa-1,4,7-trien-7-yl}-1-propanol] | 0.01 to 100 nM | 0.01 to 100 nM
N[C@H](Cc1sc2c(NCc3ccco3)snc2c1Br)CC1CC1 [Compound 61, 7-[(S)-2-amino-3-cyclopropylpropyl]-8-bromo-4-(furfurylamino)-3,6-dithia-2-azabicyclo[3.3.0]octa-1,4,7-triene] | 101 to 500 nM | 101 to 500 nM
COC[C@H](N)Cc1sc2c(NCc3cccs3)snc2c1Br [Compound 62, 7-[(R)-2-amino-3-methoxypropyl]-8-bromo-4-thenylamino-3,6-dithia-2-azabicyclo[3.3.0]octa-1,4,7-triene] | 101 to 500 nM | 501 to 5000 nM
COC[C@H](N)Cc1sc2c(NCc3ccco3)snc2c1Br [Compound 63, 7-[(R)-2-amino-3-methoxypropyl]-8-bromo-4-(furfurylamino)-3,6-dithia-2-azabicyclo[3.3.0]octa-1,4,7-triene] | 101 to 500 nM | 101 to 500 nM
COC[C@H](N)Cc1sc2c(NCc3cccs3)snc2c1C [Compound 64, 7-[(R)-2-amino-3-methoxypropyl]-8-methyl-4-thenylamino-3,6-dithia-2-azabicyclo[3.3.0]octa-1,4,7-triene] | 501 to 5000 nM | 501 to 5000 nM
COC[C@H](N)Cc1sc2c(NCc3ccco3)snc2c1Cl [Compound 65, 7-[(R)-2-amino-3-methoxypropyl]-8-chloro-4-(furfurylamino)-3,6-dithia-2-azabicyclo[3.3.0]octa-1,4,7-triene] | 501 to 5000 nM | 101 to 500 nM
C[C@H](N)Cc1cc2nsc(NCc3cccs3)c2s1 [Compound 66, 5-[(2S)-2-aminopropyl]-N-(thiophen-2-ylmethyl)thieno[3,2-c][1,2]thiazol-3-amine] | 10000 to 40000 nM | 10000 to 40000 nM
FC(F)(F)c1csc2c(NCc3cccs3)snc12 [Compound 67, (thenyl){8-(trifluoromethyl)-3,6-dithia-2-azabicyclo[3.3.0]octa-1,4,7-trien-4-yl}amine] | 10000 to 40000 nM | 10000 to 40000 nM
Cc1c(C[C@@H](N)CC(F)F)sc2c(NCc3cccs3)snc12 [Compound 68, 7-[(S)-2-amino-4,4-difluorobutyl]-8-methyl-4-thenylamino-3,6-dithia-2-azabicyclo[3.3.0]octa-1,4,7-triene] | 10000 to 40000 nM | 10000 to 40000 nM
N[C@H](Cc1sc2c(NCc3cccs3)snc2c1Cl)CC(F)F [Compound 69, 7-[(S)-2-amino-4,4-difluorobutyl]-8-chloro-4-thenylamino-3,6-dithia-2-azabicyclo[3.3.0]octa-1,4,7-triene] | 10000 to 40000 nM | 10000 to 40000 nM
N[C@H](Cc1sc2c(NCc3cccs3)snc2c1Br)CC(F)F [Compound 70, 7-[(S)-2-amino-4,4-difluorobutyl]-8-bromo-4-thenylamino-3,6-dithia-2-azabicyclo[3.3.0]octa-1,4,7-triene] | 10000 to 40000 nM | 10000 to 40000 nM
Cc1c(C[C@@H](N)c2ccccc2)sc2c(NCc3cccs3)snc12 [Compound 71, 7-[(R)-2-amino-2-phenylethyl]-8-methyl-4-thenylamino-3,6-dithia-2-azabicyclo[3.3.0]octa-1,4,7-triene] | 10000 to 40000 nM | 5000 to 10000 nM
Cc1c(C[C@@H](N)[C@H](C)F)sc2c(NCc3cccs3)snc12 [Compound 72, 7-[(2R,3S)-2-amino-3-fluorobutyl]-8-methyl-4-thenylamino-3,6-dithia-2-azabicyclo[3.3.0]octa-1,4,7-triene] | 501 to 5000 nM | 101 to 500 nM
Cc1c(C[C@@H](N)[C@@H](C)F)sc2c(NCc3cccs3)snc12 [Compound 73, 7-[(2R,3R)-2-amino-3-fluorobutyl]-8-methyl-4-thenylamino-3,6-dithia-2-azabicyclo[3.3.0]octa-1,4,7-triene] | 10000 to 40000 nM | 5000 to 10000 nM
C[C@H](F)[C@H](N)Cc1sc2c(NCc3cccs3)snc2c1Cl [Compound 74, 7-[(2R,3S)-2-amino-3-fluorobutyl]-8-chloro-4-thenylamino-3,6-dithia-2-azabicyclo[3.3.0]octa-1,4,7-triene] | 101 to 500 nM | 101 to 500 nM
